Consider nine compounds from ChEMBL document CHEMBL1201862, “PubChem BioAssay data set” (2004).

For orientation: EC50 means the concentration needed to bring the measured effect to its halfway point. A word on the CC50: it is the concentration giving 50% cytotoxicity. As a reminder, the IC50 is the midpoint of a concentration-inhibition curve. What is called Ki is a measure of affinity in units of concentration, obtained from inhibition or displacement. Broadly, the AC50 is the concentration giving half of the maximal activity seen.

The structures appear in SMILES notation. The source made the active and inactive calls.

Test [1] deals with T1, Short transient receptor potential channel 4 (Mus musculus, UniProt Q9QUQ5).
T1 sequence (Q9QUQ5 whole entry): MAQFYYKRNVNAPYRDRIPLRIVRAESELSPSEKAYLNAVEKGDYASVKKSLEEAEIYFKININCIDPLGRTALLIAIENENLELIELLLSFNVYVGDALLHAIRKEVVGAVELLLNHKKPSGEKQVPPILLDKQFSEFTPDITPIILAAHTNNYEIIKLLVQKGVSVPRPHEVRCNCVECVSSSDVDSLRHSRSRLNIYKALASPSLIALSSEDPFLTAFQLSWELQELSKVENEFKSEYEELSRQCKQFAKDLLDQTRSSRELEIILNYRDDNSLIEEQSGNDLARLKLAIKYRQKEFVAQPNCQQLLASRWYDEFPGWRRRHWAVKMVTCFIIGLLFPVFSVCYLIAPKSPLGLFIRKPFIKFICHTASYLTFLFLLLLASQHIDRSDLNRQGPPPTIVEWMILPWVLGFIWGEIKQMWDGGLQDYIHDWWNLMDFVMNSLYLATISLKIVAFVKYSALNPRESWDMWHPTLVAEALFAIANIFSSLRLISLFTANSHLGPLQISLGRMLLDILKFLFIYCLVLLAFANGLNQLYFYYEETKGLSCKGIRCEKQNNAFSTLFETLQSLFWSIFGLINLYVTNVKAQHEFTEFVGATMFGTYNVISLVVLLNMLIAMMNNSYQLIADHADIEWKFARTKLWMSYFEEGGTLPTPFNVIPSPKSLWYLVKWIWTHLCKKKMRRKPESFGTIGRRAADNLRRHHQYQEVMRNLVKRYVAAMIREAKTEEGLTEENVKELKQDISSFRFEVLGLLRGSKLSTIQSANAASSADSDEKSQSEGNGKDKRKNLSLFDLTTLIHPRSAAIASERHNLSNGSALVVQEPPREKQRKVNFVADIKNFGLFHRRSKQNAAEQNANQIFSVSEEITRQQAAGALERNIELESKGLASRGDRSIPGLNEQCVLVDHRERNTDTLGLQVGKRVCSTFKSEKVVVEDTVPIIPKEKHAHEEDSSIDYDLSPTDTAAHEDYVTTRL
In words: potentiation of DAMGO-evoked TRPC4 calcium signal – cell-based, HEK293 TRPC4/mu-opioid, Fluo-4 calcium, EC20 DAMGO, dose response (AID 434941).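 Also: HEK293 cells coexpressing TRPC4 and mu opioid receptor stimulated by EC20 DAMGO.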 The test is classed as functional.

A short description of test [2]: A Cell Based Secondary Assay To Explore Cytotoxicity of Compounds that Sensitize Mycobacterium Tuberculosis to Beta-Lactam Antibiotics. The test is classed as functional.
The nature of test [3]: cells. The test is classed as functional.
Test [4] concerns the target T2, fMet-Leu-Phe receptor (Homo sapiens, UniProt P21462).
T2 sequence (P21462 whole entry): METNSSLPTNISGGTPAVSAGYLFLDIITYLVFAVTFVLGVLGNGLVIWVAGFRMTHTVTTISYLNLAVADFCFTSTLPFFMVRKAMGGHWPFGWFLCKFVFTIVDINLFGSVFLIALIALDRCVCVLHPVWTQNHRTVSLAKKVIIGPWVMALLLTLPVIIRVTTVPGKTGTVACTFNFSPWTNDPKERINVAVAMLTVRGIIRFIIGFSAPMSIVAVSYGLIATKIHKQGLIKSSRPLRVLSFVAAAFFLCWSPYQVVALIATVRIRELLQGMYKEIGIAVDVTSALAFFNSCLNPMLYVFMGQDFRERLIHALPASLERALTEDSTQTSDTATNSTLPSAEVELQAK
The test is described as follows: formyl peptide receptor binders – dose response (AID 519). Format: functional.

Test [5] addresses CAAX prenyl protease 2 (Saccharomyces cerevisiae S288c, UniProt Q03530). The test is classed as biochemical.
Test [6] addresses Trypsin (Sus scrofa, UniProt P00761). The test is described as follows: trypsin protease activity blockade – biochemical, quenched peptide fluorescence, cherry-pick, selectivity assay for Rce1 protease inhibitor project, dose response (AID 488789).
Test [7] addresses DNA dC->dU-editing enzyme APOBEC-3G (Homo sapiens, UniProt Q9HC16). Format: functional.
Test [8] addresses DNA dC->dU-editing enzyme APOBEC-3A (Homo sapiens, UniProt P31941). The test is described as follows: Dose Response confirmation of small molecule APOBEC3A DNA Deaminase Inhibitors via a fluorescence-based single-stranded DNA deaminase assay. [Related pubchem assays (depositor defined):AID493011, AID493024]. Format: functional.
Test [9] deals with Eukaryotic translation initiation factor 4E (Mus musculus, UniProt P63073). In words: blockers of eIF4G binding by eIF4E – biochemical, TR-FRET, dose response (AID 855).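 Also: potency for disrupting eIF4E binding to eIF4GI seen as loss of FRET.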 Format: functional.
Eukaryotic translation initiation factor 4E, sequence (P63073 whole entry): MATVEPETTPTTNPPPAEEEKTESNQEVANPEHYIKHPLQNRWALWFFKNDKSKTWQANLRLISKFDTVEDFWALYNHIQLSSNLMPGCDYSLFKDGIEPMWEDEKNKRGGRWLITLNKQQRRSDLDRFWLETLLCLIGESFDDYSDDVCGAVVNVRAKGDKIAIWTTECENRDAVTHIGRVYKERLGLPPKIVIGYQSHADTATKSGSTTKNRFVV
The target of test [10] is Nonstructural protein 1 (Influenza A virus, UniProt Q194T2). Format: functional, Influenza A virus (A/California/07/2009(H1N1)).
Nonstructural protein 1, sequence (Q194T2 whole entry): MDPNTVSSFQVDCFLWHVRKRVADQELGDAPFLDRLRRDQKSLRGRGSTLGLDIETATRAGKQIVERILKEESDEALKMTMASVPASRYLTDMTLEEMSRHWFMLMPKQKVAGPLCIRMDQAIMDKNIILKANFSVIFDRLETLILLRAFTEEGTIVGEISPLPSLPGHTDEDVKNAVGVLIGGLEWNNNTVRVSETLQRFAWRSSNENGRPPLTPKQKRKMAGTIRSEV
Test [11] deals with G-protein coupled receptor 55 (Homo sapiens, UniProt Q9Y2T6). In words: inhibition of LPI-stimulated GPR55 beta-arrestin translocation – imaging, U2OS, beta-arrestin-GFP, LPI agonist, primary screen (AID 2013).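 Also: antagonist potency measured as reduced agonist-driven arrestin aggregation.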 Format: functional.
G-protein coupled receptor 55, sequence (Q9Y2T6 whole entry): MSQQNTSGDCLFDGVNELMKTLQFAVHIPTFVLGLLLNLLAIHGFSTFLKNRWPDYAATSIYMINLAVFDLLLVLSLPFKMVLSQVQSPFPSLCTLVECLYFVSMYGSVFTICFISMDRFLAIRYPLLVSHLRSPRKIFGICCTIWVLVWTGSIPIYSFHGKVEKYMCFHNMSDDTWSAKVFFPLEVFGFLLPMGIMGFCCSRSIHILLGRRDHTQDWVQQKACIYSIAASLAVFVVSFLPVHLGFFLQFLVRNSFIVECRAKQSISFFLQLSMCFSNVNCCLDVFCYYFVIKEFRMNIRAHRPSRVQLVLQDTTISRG
The target in test [12] is T3, Endoribonuclease toxin MazF (Escherichia coli K-12, UniProt P0AE70).
T3 sequence (P0AE70 whole entry): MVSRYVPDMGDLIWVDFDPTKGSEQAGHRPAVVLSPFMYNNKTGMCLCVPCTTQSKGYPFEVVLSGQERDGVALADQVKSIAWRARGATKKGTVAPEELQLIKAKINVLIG
In words: substrate-only fluorescence increase artefacts – biochemical, single-stranded RNase substrate, counter-screen for MazEF activator project, dose response (AID 588502). The test is classed as functional.

Test [13] has as its target G-protein coupled receptor 35 (Homo sapiens, UniProt Q9HC97). In words: inhibition of zaprinast-stimulated GPR35 beta-arrestin translocation – imaging, U2OS, beta-arrestin-GFP, zaprinast agonist, primary screen (AID 2058).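 Also: antagonist potency meaning inhibition of agonist-induced arrestin redistribution.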 The test is classed as functional.
In test [14] the target is T3, Endoribonuclease toxin MazF. In words: activation of MazEF endoribonuclease cleavage – biochemical, fluorescence, single-stranded RNA substrate, uHTS hits, dose response (AID 588481). The test is classed as functional.
The target of test [15] is Large T antigen (Simian virus 40, UniProt P03070). The test is classed as functional, Betapolyomavirus macacae.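 Also: Confirmatory-stage PubChem screen for compounds that inhibit SV40 T antigen.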
Large T antigen, sequence (P03070 whole entry): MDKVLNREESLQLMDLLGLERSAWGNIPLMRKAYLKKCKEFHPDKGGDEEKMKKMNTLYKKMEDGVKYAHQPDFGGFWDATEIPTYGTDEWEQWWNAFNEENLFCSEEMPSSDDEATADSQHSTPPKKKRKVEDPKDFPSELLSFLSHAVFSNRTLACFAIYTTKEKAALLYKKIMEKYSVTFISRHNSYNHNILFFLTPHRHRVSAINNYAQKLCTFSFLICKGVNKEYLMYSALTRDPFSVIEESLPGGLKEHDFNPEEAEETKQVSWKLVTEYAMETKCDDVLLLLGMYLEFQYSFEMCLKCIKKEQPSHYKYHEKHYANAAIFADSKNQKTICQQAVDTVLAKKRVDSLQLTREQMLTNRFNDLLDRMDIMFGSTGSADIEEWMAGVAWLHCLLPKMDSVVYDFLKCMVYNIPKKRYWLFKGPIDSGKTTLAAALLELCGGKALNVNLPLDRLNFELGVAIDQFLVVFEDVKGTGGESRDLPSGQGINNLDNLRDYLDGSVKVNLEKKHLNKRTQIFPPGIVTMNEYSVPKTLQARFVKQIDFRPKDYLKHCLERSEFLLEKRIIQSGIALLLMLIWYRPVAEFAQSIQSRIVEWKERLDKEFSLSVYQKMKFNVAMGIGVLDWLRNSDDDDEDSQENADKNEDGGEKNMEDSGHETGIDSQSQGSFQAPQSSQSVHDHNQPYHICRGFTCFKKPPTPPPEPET
In test [16] the target is T4, Kappa-type opioid receptor (Homo sapiens, UniProt P41145). In words: kappa opioid receptor activation by imaging – image-based, set 3, SAR follow-up (AID 488833). Format: functional.
T4 sequence (P41145 whole entry): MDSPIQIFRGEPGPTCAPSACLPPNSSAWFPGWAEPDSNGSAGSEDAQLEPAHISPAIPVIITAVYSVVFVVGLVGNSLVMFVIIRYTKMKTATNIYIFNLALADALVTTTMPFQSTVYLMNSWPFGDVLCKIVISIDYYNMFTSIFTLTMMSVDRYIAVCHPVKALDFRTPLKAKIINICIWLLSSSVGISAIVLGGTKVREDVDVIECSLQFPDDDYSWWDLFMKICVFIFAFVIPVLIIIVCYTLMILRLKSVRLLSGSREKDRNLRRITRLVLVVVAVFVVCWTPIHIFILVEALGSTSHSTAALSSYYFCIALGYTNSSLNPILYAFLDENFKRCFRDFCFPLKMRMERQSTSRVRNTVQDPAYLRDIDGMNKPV
The target of test [17] is Mu-type opioid receptor (Homo sapiens, UniProt P35372). In words: SAR Analysis of Agonists of the MOR Receptor using an Image-Based Assay - Set 3. [Related pubchem assays (depositor defined):AID1777, AID1785, AID1786, AID1966, AID2133, AID2136, AID2284, AID2285, AID2352]. The test is classed as functional.
Mu-type opioid receptor, sequence (P35372 whole entry): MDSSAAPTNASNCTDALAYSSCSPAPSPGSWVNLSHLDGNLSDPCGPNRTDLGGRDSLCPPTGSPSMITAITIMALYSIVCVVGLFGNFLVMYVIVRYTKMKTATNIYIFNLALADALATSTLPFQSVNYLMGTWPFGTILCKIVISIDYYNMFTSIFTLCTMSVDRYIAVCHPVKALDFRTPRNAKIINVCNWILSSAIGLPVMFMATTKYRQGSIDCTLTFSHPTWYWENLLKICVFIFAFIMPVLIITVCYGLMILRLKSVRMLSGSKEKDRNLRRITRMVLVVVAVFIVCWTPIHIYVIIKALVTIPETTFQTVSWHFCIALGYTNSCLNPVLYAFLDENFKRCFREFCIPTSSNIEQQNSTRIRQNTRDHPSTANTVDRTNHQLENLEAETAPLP
Test [18] deals with T4, Kappa-type opioid receptor. The test is described as follows: SAR analysis of small molecule agonists of the kappa opioid receptor via a luminescent beta-arrestin assay - Set 3. [Related pubchem assays (depositor defined):AID1777, AID1785, AID1786, AID1966, AID2133, AID2136, AID2284, AID2500]. Format: functional.
The target of test [19] is Delta-type opioid receptor (Homo sapiens, UniProt P41143). The test is described as follows: SAR Analysis of Agonists of the DOR Receptor using an Image-Based Assay - Set 3. [Related pubchem assays (depositor defined):AID1777, AID1786]. The test is classed as functional.
Delta-type opioid receptor, sequence (P41143 whole entry): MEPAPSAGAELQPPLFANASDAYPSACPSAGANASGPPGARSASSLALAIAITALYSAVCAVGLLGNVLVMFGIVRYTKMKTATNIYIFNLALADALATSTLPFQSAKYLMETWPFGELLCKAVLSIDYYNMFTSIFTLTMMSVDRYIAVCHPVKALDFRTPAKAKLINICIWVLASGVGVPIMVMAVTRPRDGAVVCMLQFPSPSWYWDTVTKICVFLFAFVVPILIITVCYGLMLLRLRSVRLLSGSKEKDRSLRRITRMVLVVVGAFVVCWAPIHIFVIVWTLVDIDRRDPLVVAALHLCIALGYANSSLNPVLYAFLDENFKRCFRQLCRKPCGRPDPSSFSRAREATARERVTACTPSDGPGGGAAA
The target of test [20] is T5, Tyrosine-protein phosphatase non-receptor type 7 (Homo sapiens, UniProt P35236).
T5 sequence (P35236 whole entry): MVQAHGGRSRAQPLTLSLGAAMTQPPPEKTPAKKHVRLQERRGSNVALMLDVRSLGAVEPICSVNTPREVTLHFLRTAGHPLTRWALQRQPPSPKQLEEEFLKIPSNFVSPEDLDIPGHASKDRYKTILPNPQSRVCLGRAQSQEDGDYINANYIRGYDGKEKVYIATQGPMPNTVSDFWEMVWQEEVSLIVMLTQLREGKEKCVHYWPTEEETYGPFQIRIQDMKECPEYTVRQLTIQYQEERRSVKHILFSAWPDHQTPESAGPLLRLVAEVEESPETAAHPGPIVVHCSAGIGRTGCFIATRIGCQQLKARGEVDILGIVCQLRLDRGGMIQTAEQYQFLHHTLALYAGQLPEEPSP
In words: redox-active compounds inhibiting HePTP phosphatase – biochemical, fluorescence, mechanism study (AID 2068). The test is classed as functional.

Test [21] concerns the target T6, Dual specificity protein phosphatase 6 (Rattus norvegicus, UniProt Q64346).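 Also: confirmatory in vitro dose-response testing of MKP-3 inhibition; recombinant His-tagged MKP-3 made in E. coli BL21 with OMFP substrate.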
T6 sequence (Q64346 whole entry): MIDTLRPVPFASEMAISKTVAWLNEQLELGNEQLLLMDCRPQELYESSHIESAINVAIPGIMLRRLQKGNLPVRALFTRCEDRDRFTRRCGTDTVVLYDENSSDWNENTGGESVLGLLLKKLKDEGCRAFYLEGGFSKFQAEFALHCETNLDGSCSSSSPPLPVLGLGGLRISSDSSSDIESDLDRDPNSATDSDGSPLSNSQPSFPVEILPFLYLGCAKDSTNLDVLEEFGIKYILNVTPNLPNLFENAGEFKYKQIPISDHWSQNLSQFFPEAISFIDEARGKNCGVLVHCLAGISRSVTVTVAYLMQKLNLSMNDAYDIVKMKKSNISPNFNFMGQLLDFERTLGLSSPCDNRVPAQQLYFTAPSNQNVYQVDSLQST
The test is classed as functional.

CAAX prenyl protease 2, sequence (Q03530 whole entry): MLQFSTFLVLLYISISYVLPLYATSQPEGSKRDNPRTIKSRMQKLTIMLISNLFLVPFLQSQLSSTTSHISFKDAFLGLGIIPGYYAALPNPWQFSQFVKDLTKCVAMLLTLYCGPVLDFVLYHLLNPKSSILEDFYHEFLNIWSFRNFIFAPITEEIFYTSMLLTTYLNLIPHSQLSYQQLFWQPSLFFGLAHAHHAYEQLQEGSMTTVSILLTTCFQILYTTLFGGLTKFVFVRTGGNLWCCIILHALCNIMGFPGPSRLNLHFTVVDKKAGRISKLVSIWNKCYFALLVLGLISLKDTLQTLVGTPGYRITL
Trypsin, sequence (P00761 whole entry): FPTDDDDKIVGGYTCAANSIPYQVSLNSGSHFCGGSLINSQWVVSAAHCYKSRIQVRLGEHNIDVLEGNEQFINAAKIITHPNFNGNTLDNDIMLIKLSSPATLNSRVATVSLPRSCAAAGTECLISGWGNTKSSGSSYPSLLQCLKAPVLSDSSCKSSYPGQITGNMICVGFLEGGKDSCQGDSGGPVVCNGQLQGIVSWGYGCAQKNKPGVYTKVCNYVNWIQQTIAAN
DNA dC->dU-editing enzyme APOBEC-3G, sequence (Q9HC16 whole entry): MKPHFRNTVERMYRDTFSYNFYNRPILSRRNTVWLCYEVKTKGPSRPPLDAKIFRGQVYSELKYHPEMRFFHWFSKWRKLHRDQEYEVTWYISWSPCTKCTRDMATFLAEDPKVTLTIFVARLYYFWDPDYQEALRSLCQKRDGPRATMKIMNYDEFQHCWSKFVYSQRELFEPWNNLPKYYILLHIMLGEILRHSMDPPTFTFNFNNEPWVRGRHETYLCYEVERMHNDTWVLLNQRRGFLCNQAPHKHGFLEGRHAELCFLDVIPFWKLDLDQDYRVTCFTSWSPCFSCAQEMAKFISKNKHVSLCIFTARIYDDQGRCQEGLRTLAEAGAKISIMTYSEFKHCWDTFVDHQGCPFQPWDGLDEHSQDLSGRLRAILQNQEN
G-protein coupled receptor 35, sequence (Q9HC97 whole entry): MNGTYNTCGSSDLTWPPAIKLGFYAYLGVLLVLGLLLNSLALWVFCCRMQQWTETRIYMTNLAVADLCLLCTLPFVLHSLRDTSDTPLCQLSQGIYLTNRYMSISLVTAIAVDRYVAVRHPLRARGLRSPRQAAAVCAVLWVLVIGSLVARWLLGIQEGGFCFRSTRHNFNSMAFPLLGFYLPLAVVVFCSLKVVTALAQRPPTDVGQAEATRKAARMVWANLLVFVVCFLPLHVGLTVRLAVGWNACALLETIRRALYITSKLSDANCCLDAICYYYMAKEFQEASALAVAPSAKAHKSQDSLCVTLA
DNA dC->dU-editing enzyme APOBEC-3A, sequence (P31941 whole entry): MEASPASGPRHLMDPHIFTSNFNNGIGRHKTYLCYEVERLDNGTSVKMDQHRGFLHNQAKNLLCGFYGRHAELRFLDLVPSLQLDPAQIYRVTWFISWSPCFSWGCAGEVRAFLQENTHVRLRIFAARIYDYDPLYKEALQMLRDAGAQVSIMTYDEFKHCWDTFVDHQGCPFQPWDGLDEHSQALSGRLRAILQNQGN

With `CCN1CCN(Cc2cc(Br)ccc2O)CC1`, the EC50 in test [1] was 0.21 µM (active).
Regarding `Cc1cccc(Cn2c(N3CCN(c4ccccc4)CC3)nc3c2c(=O)n(C)c(=O)n3C)c1`, the 50% effective concentration (EC50) in [1] was 0.84 µM (active). The CC50 in test [2] was > 40 µM (active).
Regarding `CCCc1cc(O)n2nc(C)c(-c3ccccc3)c2n1`, in test [3], the IC50 was 46.5 µM (active). For the same compound, the Ki in test [4] was > 66.7 µM (inactive). Besides, the AC50 in test [5] is 22.3 µM (active); in test [6], 5.36 µM (active).
Turning to `COc1ccc2cc(C(=O)C3CCCN(C(=O)CCc4cnn(C)c4)C3)ccc2c1` (stereo not drawn), the concentration at half-maximal activity (AC50) in test [5] was 19.5 µM (active); in test [6], 11.5 µM (active).
For `O=C(C[n+]1c2n(c3ccc(C(F)(F)F)cc31)CCCCC2)Nc1ccccc1`, the IC50 is 3.79 µM (active) in test [7], 2.76 µM (active) in [8] and > 64 µM (inactive) in test [9].
As for `CN(C)/C=C/C=C/C=C/C1=[N+](C)c2ccccc2C1(C)C`, the IC50 in [10] was 5.75 µM (active); in test [11], 2.05 µM (active); in test [13] it was 1.82 µM (active); in test [15], 27.8 µM (active). The values for the EC50 in test [12] and in test [14] were 89.5 µM (inactive) and > 99 µM (inactive), respectively.
Consider `Cc1ccccc1CSc1nnc(-c2ccccn2)n1Cc1ccco1`, for which the EC50 was 28.7 µM (inactive) in test [16], > 32 µM (inactive) in [17], 17.7 µM (inactive) in test [18] and > 64 µM (inactive) in test [19].
In the case of `CCN1CCN(C(=S)c2ccc(O)c(OC)c2)CC1`, the IC50 in test [20] was 74.5 µM (active); in [21], > 100 µM (inactive).
`Cc1c(CSc2nnc(-c3ccccn3)n2Cc2cccs2)cccc1[N+](=O)[O-]`: the EC50 in test [16] was 4.15 µM (active); in test [17], > 32 µM (inactive); in [18], 5.82 µM (active); in test [19], > 32 µM (inactive).
